Experimental data as given in ChEMBL document CHEMBL1201862, “PubChem BioAssay data set” (2004).
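Results reflect a 48-hour exposure of cells in 96-well plates to compound at five concentrations. Abbreviation: GI50, concentration required for 50% inhibition of growth.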 Activity calls are given as the source filed them. Cut-off read from the data, not from the text of the source: active = GI50 up to about 1.1 µM and inactive = higher.

Columns and labels:
Assay in all cases: growth of human tumour cells (NCI), 48 h
[1] = test system: HCT-15
[2] = test system: MOLT-4
[3] = test system: NCI-H23
[4] = test system: NCI-H522
[5] = test system: NCI-H460
[6] = test system: SF-539
[7] = test system: SF-295
[8] = test system: Malme-3M
[9] = test system: SW-620
[10] = test system: U-251
[11] = test system: SK-MEL-28
[12] = test system: OVCAR-8
[13] = test system: UACC-62
[14] = test system: UACC-257
[15] = test system: OVCAR-5
[16] = test system: UO-31
[17] = test system: IGROV-1
[18] = test system: DMS-114
[19] = test system: SNB-19
[20] = test system: KM-20L2
[21] = test system: HCC 2998
[22] = test system: SK-OV-3
[23] = test system: SK-MEL-5
[24] = test system: EKVX
[25] = test system: TK-10
[26] = test system: A549
[27] = test system: HL-60
[28] = test system: OVCAR-4
[29] = test system: SNB-75
[30] = test system: 786-0
[31] = test system: M14
[32] = test system: XF498
[33] = test system: M19-MEL
[34] = test system: A498
[35] = test system: SN12C
[36] = test system: LOX IMVI
[37] = test system: SF-268
[38] = test system: OVCAR-3
[39] = test system: HT-29
[40] = test system: ACHN
[41] = test system: HOP-62
[42] = test system: CCRF-CEM
[43] = test system: RPMI-8226
[44] = test system: CAKI-1
[45] = test system: DMS-273
[46] = test system: SK-MEL-2
[47] = test system: KM12
[48] = test system: K562
[49] = test system: NCI-H226
[50] = test system: LXFL 529
[51] = test system: HCT-116
[52] = test system: COLO 205
[53] = test system: DLD-1
[54] = test system: RXF 393
[55] = test system: HOP-92
[56] = test system: SNB-78

SMILES: COc1ccccc1/N=N/C(C(=O)c1ccccc1)C(=O)c1ccccc1
- GI50 [1]: 14.9 µM
- GI50 [2]: 9.48 µM (inactive)
- GI50 [3]: 19.2 µM (inactive)
- GI50 [4]: 16.1 µM (inactive)
- GI50 [5]: 19.6 µM (inactive)
- GI50 [6]: 26.2 µM (inactive)
- GI50 [7]: 17.8 µM (inactive)
- GI50 [8]: 25.4 µM (inactive)
- GI50 [9]: 25.1 µM (inactive)
- GI50 [10]: 18.5 µM (inactive)
- GI50 [11]: 26.9 µM (inactive)
- GI50 [12]: 21.5 µM (inactive)
- GI50 [13]: 13.2 µM (inactive)
- GI50 [14]: 28.4 µM (inactive)
- GI50 [15]: 32.1 µM (inactive)
- GI50 [16]: 12.8 µM (inactive)
- GI50 [17]: 27 µM (inactive)
- GI50 [18]: 15.2 µM (inactive)
- GI50 [19]: 17.2 µM (inactive)
- GI50 [20]: 26.3 µM (inactive)
- GI50 [21]: 27.1 µM (inactive)
- GI50 [22]: 45.1 µM (inactive)
- GI50 [23]: 18 µM (inactive)
- GI50 [24]: 21.4 µM (inactive)
- GI50 [25]: 50.2 µM (inactive)
- GI50 [26]: 22.4 µM (inactive)
- GI50 [27]: 7.8 µM (inactive)
- GI50 [28]: 9.53 µM (inactive)
- GI50 [29]: 19.9 µM (inactive)
- GI50 [30]: 24.4 µM (inactive)
- GI50 [31]: 15 µM (inactive)
- GI50 [32]: 19.5 µM (inactive)
- GI50 [33]: 15 µM (inactive)
- GI50 [34]: 25.2 µM (inactive)
- GI50 [35]: 17.2 µM (inactive)
- GI50 [36]: 17.9 µM (inactive)
- GI50 [37]: 21.1 µM (inactive)
- GI50 [38]: 22.5 µM (inactive)
- GI50 [39]: 25.9 µM (inactive)
- GI50 [40]: 21.6 µM (inactive)
- GI50 [41]: 15.5 µM (inactive)
- GI50 [42]: 7.91 µM (inactive)
- GI50 [43]: 12.4 µM (inactive)
- GI50 [44]: 25.2 µM (inactive)
- GI50 [45]: 16.4 µM (inactive)
- GI50 [46]: 20.7 µM (inactive)
- GI50 [47]: 29.2 µM (inactive)
- GI50 [48]: 16.9 µM (inactive)
- GI50 [49]: 14.4 µM (inactive)
- GI50 [50]: 15.5 µM (inactive)
- GI50 [51]: 11.5 µM (inactive)
- GI50 [52]: 33.3 µM (inactive)
- GI50 [53]: 17.6 µM (inactive)

SMILES: CC(=O)O[C@H]1CC[C@@]2(C)C(=C/C(=N\[N+](=O)[O-])[C@H]3C4CCC([C@H](C)CCCC(C)C)[C@@]4(C)CCC32)C1 (stereo partly drawn)
- GI50 [1]: > 100 µM
- GI50 [2]: > 100 µM (inactive)
- GI50 [3]: > 100 µM (inactive)
- GI50 [4]: > 100 µM (inactive)
- GI50 [5]: > 100 µM (inactive)
- GI50 [6]: > 100 µM (inactive)
- GI50 [7]: > 100 µM (inactive)
- GI50 [8]: > 100 µM (inactive)
- GI50 [9]: > 100 µM (inactive)
- GI50 [11]: > 100 µM (inactive)
- GI50 [12]: > 100 µM (inactive)
- GI50 [13]: > 100 µM (inactive)
- GI50 [14]: > 100 µM (inactive)
- GI50 [54]: > 100 µM (inactive)
- GI50 [15]: > 100 µM (inactive)
- GI50 [16]: > 100 µM (inactive)
- GI50 [17]: > 100 µM (inactive)
- GI50 [18]: > 100 µM (inactive)
- GI50 [19]: > 100 µM (inactive)
- GI50 [20]: > 100 µM (inactive)
- GI50 [22]: > 100 µM (inactive)
- GI50 [23]: > 100 µM (inactive)
- GI50 [55]: > 100 µM (inactive)
- GI50 [24]: > 100 µM (inactive)
- GI50 [25]: > 100 µM (inactive)
- GI50 [26]: > 100 µM (inactive)
- GI50 [27]: > 100 µM (inactive)
- GI50 [28]: > 100 µM (inactive)
- GI50 [29]: > 100 µM (inactive)
- GI50 [30]: > 100 µM (inactive)
- GI50 [31]: > 100 µM (inactive)
- GI50 [32]: > 100 µM (inactive)
- GI50 [33]: > 100 µM (inactive)
- GI50 [34]: > 100 µM (inactive)
- GI50 [35]: > 100 µM (inactive)
- GI50 [36]: > 100 µM (inactive)
- GI50 [37]: > 100 µM (inactive)
- GI50 [38]: > 100 µM (inactive)
- GI50 [39]: > 100 µM (inactive)
- GI50 [40]: > 100 µM (inactive)
- GI50 [41]: > 100 µM (inactive)
- GI50 [43]: > 100 µM (inactive)
- GI50 [44]: > 100 µM (inactive)
- GI50 [45]: > 100 µM (inactive)
- GI50 [46]: > 100 µM (inactive)
- GI50 [48]: > 100 µM (inactive)
- GI50 [49]: > 100 µM (inactive)
- GI50 [50]: > 100 µM (inactive)
- GI50 [51]: > 100 µM (inactive)
- GI50 [52]: > 100 µM (inactive)
- GI50 [53]: > 100 µM (inactive)

SMILES: Cc1cc(N(CCC#N)CCC#N)ccc1/C=C1N=C(/C=C/c2ccccc2)OC(=O)N\1
- GI50 [1]: > 100 µM
- GI50 [2]: > 100 µM (inactive)
- GI50 [3]: > 100 µM (inactive)
- GI50 [4]: > 100 µM (inactive)
- GI50 [5]: > 100 µM (inactive)
- GI50 [6]: > 100 µM (inactive)
- GI50 [7]: 7.41 µM (inactive)
- GI50 [8]: > 100 µM (inactive)
- GI50 [9]: > 100 µM (inactive)
- GI50 [10]: 61.5 µM (inactive)
- GI50 [11]: > 100 µM (inactive)
- GI50 [12]: > 100 µM (inactive)
- GI50 [13]: > 100 µM (inactive)
- GI50 [14]: > 100 µM (inactive)
- GI50 [54]: 91.8 µM (inactive)
- GI50 [15]: > 100 µM (inactive)
- GI50 [16]: > 100 µM (inactive)
- GI50 [17]: > 100 µM (inactive)
- GI50 [18]: > 100 µM (inactive)
- GI50 [19]: > 100 µM (inactive)
- GI50 [20]: > 100 µM (inactive)
- GI50 [21]: > 100 µM (inactive)
- GI50 [22]: 92.3 µM (inactive)
- GI50 [23]: > 100 µM (inactive)
- GI50 [24]: > 100 µM (inactive)
- GI50 [25]: > 100 µM (inactive)
- GI50 [26]: > 100 µM (inactive)
- GI50 [27]: > 100 µM (inactive)
- GI50 [29]: 31.3 µM (inactive)
- GI50 [30]: 37.8 µM (inactive)
- GI50 [31]: > 100 µM (inactive)
- GI50 [32]: > 100 µM (inactive)
- GI50 [33]: > 100 µM (inactive)
- GI50 [34]: > 100 µM (inactive)
- GI50 [35]: > 100 µM (inactive)
- GI50 [36]: > 100 µM (inactive)
- GI50 [37]: > 100 µM (inactive)
- GI50 [38]: 81.5 µM (inactive)
- GI50 [39]: > 100 µM (inactive)
- GI50 [40]: > 100 µM (inactive)
- GI50 [41]: > 100 µM (inactive)
- GI50 [42]: > 100 µM (inactive)
- GI50 [43]: > 100 µM (inactive)
- GI50 [44]: > 100 µM (inactive)
- GI50 [45]: > 100 µM (inactive)
- GI50 [46]: > 100 µM (inactive)
- GI50 [47]: > 100 µM (inactive)
- GI50 [48]: > 100 µM (inactive)
- GI50 [49]: 33 µM (inactive)
- GI50 [50]: > 100 µM (inactive)
- GI50 [51]: > 100 µM (inactive)
- GI50 [56]: 43.3 µM (inactive)
- GI50 [52]: > 100 µM (inactive)
- GI50 [53]: > 100 µM (inactive)
